Our source for the IC50 values is ChEMBL document CHEMBL4196219, “Rare Thioglycosides from the Roots of Wasabia japonica” (J Nat Prod, 2018).

For this assay, the system named is BV-2. In words: Antiinflammatory activity in mouse BV2 cells assessed as inhibition of LPS-induced nitric oxide production after 24 hrs by Griess reagent based assay. The class given is functional, cell-based. Particulars: BV-2, 24 h. In general terms: Nitrite, measured by Griess reagent, commonly stands in for NO production.

Broadly, the IC50 is the concentration at which inhibition is half-maximal. `C[C@@H]1CSS[C@@H]2O[C@H](CO)[C@@H](O)[C@H](O)[C@H]2OC1=O`: the IC50 stood at 41.2 µM.
